# Experimental data from patent US11247970B2, “Selective inhibition of gluconeogenic activity” (Dana-Farber Cancer Institute, Inc., priority 2017, dated 2022).
# Target: T1, PGC-1α (Mus musculus, UniProt O70343)
# T1 sequence (O70343 1-797): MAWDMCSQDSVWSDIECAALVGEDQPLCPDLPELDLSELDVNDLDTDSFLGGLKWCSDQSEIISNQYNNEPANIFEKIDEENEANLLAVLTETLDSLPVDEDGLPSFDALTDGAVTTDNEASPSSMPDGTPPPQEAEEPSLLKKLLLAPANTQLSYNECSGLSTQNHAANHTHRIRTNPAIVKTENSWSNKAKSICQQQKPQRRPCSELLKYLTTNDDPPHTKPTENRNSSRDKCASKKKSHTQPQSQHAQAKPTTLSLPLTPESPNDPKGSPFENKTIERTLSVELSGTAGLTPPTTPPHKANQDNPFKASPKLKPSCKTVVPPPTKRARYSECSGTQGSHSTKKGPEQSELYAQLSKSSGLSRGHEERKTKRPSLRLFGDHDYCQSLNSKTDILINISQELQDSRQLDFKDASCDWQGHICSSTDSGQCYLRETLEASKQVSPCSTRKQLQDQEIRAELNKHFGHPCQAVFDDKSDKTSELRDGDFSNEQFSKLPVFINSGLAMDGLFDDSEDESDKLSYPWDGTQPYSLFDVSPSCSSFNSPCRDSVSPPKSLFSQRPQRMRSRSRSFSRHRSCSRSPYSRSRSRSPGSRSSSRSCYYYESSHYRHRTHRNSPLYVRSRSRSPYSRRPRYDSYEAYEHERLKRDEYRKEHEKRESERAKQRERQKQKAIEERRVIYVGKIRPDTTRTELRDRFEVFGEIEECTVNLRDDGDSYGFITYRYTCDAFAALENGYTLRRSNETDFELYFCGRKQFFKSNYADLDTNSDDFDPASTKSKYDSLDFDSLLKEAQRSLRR
# Experiment: Mass spectrometry of acetylated PGC-1α lysine residues
# Format: cell-based
# Parameters: expressed in transfected cells; host or cells: U-2 OS cells infected with Ad-PGC-1α and Ad-GCN5
# Details: U-2 OS, Ad-PGC-1α and Ad-GCN5, 18 h
# Experimental: Gel bands were dehydrated with acetonitrile, dried and resuspended in 50 mM ammonium bicarbonate (pH 8.0) containing 500 ng of sequencing-grade trypsin (Promega) and incubated at 37° C. for 8 hours. Digested samples were then loaded onto StageTips and desalted. Peptides were eluted with 50% acetonitrile, 5% formic acid, dried using a Speed-Vac apparatus, and resuspended in 25 μl of HEPES, pH 8.5. Peptides were labeled with 6-plex tandem mass tag (TMT) reagents (Thermo Scientific, Rockford, Ill.). After 1 hour of incubation at room temperature, the reaction was quenched with hydroxylamine and acidification with formic acid to pH˜2. TMT labeled peptides were combined, desalted by StageTips, dried and resuspended in 10 μl of 1% formic acid. All spectra were acquired using an Oribtrap Fusion mass spectrometer (Thermo Scientific) in line with an Easy-nLC 1200 (Thermo Fisher Scientific) ultra-high pressure liquid chromatography (UHPLC) pump. […] For MS3 based TMT quantitation, MS2 spectra were collected at an AGC of 4000, max injection time of 150 ms, and CID collision energy set at 35%. […] For quantification, a 0.03 m/z window centered on the theoretical DA value of each reporter ion was utilized for the nearest maximal signal intensity. […]
smiles,measurement,value
"Cc1ccc(CN(CC(O)COc2cccc3[nH]ccc23)C(C)(C)C)cc1 (stereo not shown) [SR-18292, 1-((1H-indol-4-yl)oxy)-3-(tert-butyl(4-methylbenzyl)amino)propan-2-ol]",number of PGC-1α lysine residues with increased acetylation,7
